Laboratory results taken from article PMC10833105 (Journal of medicinal chemistry, 2023).
Read-outs that look alike come from different tables or passages of the source.

How the values were obtained:
[1] = biological target: GABAAR; conditions: 3H-flunitrazepam, rat brain extract; for IC50: read-out: GABAAR binding IC50
[2] = in vitro; conditions: PAMPA, pH 7.4
[3] = test system: female A/J mice; test: Methacholine-induced airway hyperresponsiveness, double chamber plethysmograph; assay type: in vivo, mouse; conditions: nebulized 7.2 mg/kg, then five nebulized methacholine challenges, vs vehicle
[4] = test system: guinea pig airway smooth muscle; test: Ex vivo airway smooth muscle relaxation, substance P-contracted tracheal rings; conditions: 25 μM, vs vehicle
[5] = test system: GABAAR; conditions: read-out: GABAAR binding IC50; reported earlier; cited from earlier work
[6] = Microsomal stability phase 1; assay type: in vitro ADME; conditions: human liver S9, NADPH, 10 μM compound
[7] = cited from earlier work
[8] = Microsomal stability phase 1; assay type: in vitro ADME; conditions: mouse liver S9, NADPH, 10 μM compound
[9] = Metabolic stability phase 2; assay type: in vitro ADME; conditions: mouse liver S9, UDP-glucuronic acid, 10 μM compound
[10] = Metabolic stability phase 2; assay type: in vitro ADME; conditions: human liver S9, UDP-glucuronic acid, 10 μM compound
[11] = test system: female Swiss Webster mice; conditions: oral dosing up to 1000 mg/kg; cited from earlier work
[12] = test system: female Swiss Webster mice; test: Rotarod sensorimotor inhibition; assay type: in vivo, mouse; conditions: diazepam 8 mg/kg

| Compound | IC50 [1] | Papp [2] | GABAAR binding (in words) [1] | also measured |
| --- | --- | --- | --- | --- |
| CC1(C)N=C(c2ccccc2F)c2cc(Br)ccc2NC1=O [3a, 7-Bromo-5-(2-fluorophenyl)-3,3-dimethyl-1,3-dihydro-2H-benzo[e][1,4]diazepin-2-one] | 1250 nM | – | – | – |
| O=C1Nc2ccc(Br)cc2C(c2ccccc2F)=NC12CC2 [3c] | 42 nM | – | – | – |
| O=C1Nc2ccc(Br)cc2C(c2ccccc2F)=NC12CCC2 [3d] | 2040 nM | 3.16 ×10⁻⁶ cm/s | – | – |
| O=C1Nc2ccc(Br)cc2C(c2ccccc2F)=NC12CCCC2 [3e] | – | 0.158 ×10⁻⁶ cm/s | no significant binding | – |
| O=C1Nc2ccc(Br)cc2C(c2ccccc2F)=NC12CCCCC2 [3f] | – | 0.0794 ×10⁻⁶ cm/s | no significant binding | – |
| O=C1Nc2ccc(Cl)cc2C(c2ccccc2F)=NC12CC2 [3g] | 665 nM | – | – | – |
| CCOC(=O)c1ncn2c1C(C)(C)N=C(c1ccccc1F)c1cc(Br)ccc1-2 [4a] | 733 nM | – | Some activity was retained | – |
| CCOC(=O)c1ncn2c1C1(CC1)N=C(c1ccccc1F)c1cc(Br)ccc1-2 [4c, Ethyl 8-bromo-6-(2-fluorophenyl)spiro[benzo[f]imidazo[1,5-α][1,4]diazepine-4,1′-cyclopropane]-3-carboxylate] | 87 nM | – | – | – |
| CCOC(=O)c1ncn2c1C1(CCC1)N=C(c1ccccc1F)c1cc(Br)ccc1-2 [4d] | 859 nM | 6.31 ×10⁻⁶ cm/s | Some activity was retained | – |
| CCOC(=O)c1ncn2c1C1(CCCC1)N=C(c1ccccc1F)c1cc(Br)ccc1-2 [4e] | – | 1.58 ×10⁻⁶ cm/s | not active | – |
| CCOC(=O)c1ncn2c1C1(CCCCC1)N=C(c1ccccc1F)c1cc(Br)ccc1-2 [4f] | 6220 nM | 1 ×10⁻⁶ cm/s | not active | – |
| CCOC(=O)c1ncn2c1C1(CC1)N=C(c1ccccc1F)c1cc(Cl)ccc1-2 [4g] | – | 2.51 ×10⁻⁶ cm/s | weak GABAAR ligands | – |
| CCOC(=O)c1ncn2c1C1(CC1)N=C(c1ccccc1F)c1cc(C3CC3)ccc1-2 [4i, Ethyl 8-Cyclopropyl-6-(2-fluorophenyl)spiro-[benzo[f]imidazo[1,5-α][1,4]diazepine-4,1′-cyclopropane]-3-carboxylate] | – | 12.6 ×10⁻⁶ cm/s | – | – |
| CC1(C)N=C(c2ccccc2F)c2cc(Br)ccc2-n2cnc(C(=O)O)c21 [5a] | 4050 nM | – | did not show strong GABAAR binding | effect on specific airway resistance (sRaw) [3]: little to no change of sRaw values |
| O=C(O)c1ncn2c1C1(CC1)N=C(c1ccccc1F)c1cc(Br)ccc1-2 [5c, 8-Bromo-6-(2-fluorophenyl)-spiro[benzo[f]imidazo[1,5-α][1,4]diazepine-4,1′-cyclopropane]-3-carboxylic Acid] | 9 nM | – | – | relaxation of constricted airway smooth muscle ([4]; at 30 min): significant relaxation |
| O=C(O)c1ncn2c1C1(CCC1)N=C(c1ccccc1F)c1cc(Br)ccc1-2 [5d] | 1830 nM | – | – | relaxation of constricted airway smooth muscle ([4]; at 60 min): weak airway smooth muscle relaxation |
| O=C(O)c1ncn2c1C1(CCCCC1)N=C(c1ccccc1F)c1cc(Br)ccc1-2 [5f] | – | – | – | relaxation of constricted airway smooth muscle ([4]; at 30 min): significant relaxation |
| O=C(O)c1ncn2c1C1(CC1)N=C(c1ccccc1F)c1cc(Cl)ccc1-2 [5g] | – | – | weak GABAAR ligands | – |
| C#Cc1ccc2c(c1)C(c1ccccc1F)=NC1(CC1)c1c(C(=O)O)ncn1-2 [5h, 8-Ethynyl-6-(2-fluorophenyl)spiro[benzo[f]-imidazo[1,5-α][1,4]diazepine-4,1′-cyclopropane]-3-carboxylic Acid] | 59 nM | – | – | relaxation of constricted airway smooth muscle ([4]; at 30 min): significant relaxation |
| O=C(O)c1ncn2c1C1(CC1)N=C(c1ccccc1F)c1cc(C3CC3)ccc1-2 [5i] | 1830 nM | – | weak GABAAR ligands | – |
| O=C(O)c1ncn2c1C1(CC1)N=C(c1ccccc1F)c1ccccc1-2 [5j, 6-(2-Fluorophenyl)spiro[benzo[f]imidazo[1,5-α][1,4]diazepine-4,1′-cyclopropane]-3-carboxylic Acid] | 289 nM | – | – | relaxation of constricted airway smooth muscle ([4]; at 30 min): significant relaxation |
| C[C@@H]1N=C(c2ccccc2F)c2cc(Br)ccc2-n2cnc(C(=O)O)c21 [MIDD0301S] | – | – | – | IC50 [5]: 25 nM |
| C[C@H]1N=C(c2ccccc2F)c2cc(Br)ccc2-n2cnc(C(=O)O)c21 [MIDD0301] | – | – | – | remaining percentage of parent compound after 2 h, phase 1 [6]: 98 ± 4%; aqueous solubility (in words) ([7]; pH values between 3 and 6): significantly decreased; aqueous solubility (in words) ([7]; strong acidic, neutral and basic conditions): excellent solubility; remaining percentage of parent compound after 2 h, phase 1 [8]: 110 ± 14%; remaining percentage of parent compound after 2 h, phase 2 [9]: 73 ± 8%; IC50 [5]: 26 nM; remaining percentage of parent compound after 2 h, phase 2 [10]: 77 ± 3%; sensorimotor inhibition on rotarod [11]: absence of sensorimotor inhibition |
| CN1C(=O)CN=C(c2ccccc2)c2cc(Cl)ccc21 [diazepam] | – | – | – | sensorimotor inhibition on rotarod [12]: rapid and significant loss of sensorimotor coordination |
